According to patent EP2518500A1, “In vitro method for determining developmental toxicity of a compound” (priority 2011, dated 2012):
Read-outs that look alike come from different tables or passages of the source.

Assays:
vmhc [1] = test: Microarray gene expression in zebrafish embryos exposed to compound, vmhc; conditions: 24 hpf; embryos exposed at BMCGMS20 (PAA equimolar to MAA and EAA); relative to DMSO-exposed control; negative = downregulation, positive = upregulation
hspb12 [2] = test: Microarray gene expression in zebrafish embryos exposed to compound, hspb12; conditions: 24 hpf; embryos exposed at BMCGMS20 (PAA equimolar to MAA and EAA); relative to DMSO-exposed control; negative = downregulation, positive = upregulation
cyp26a1 [3] = test: Microarray gene expression in zebrafish embryos exposed to compound, cyp26a1; conditions: 24 hpf; embryos exposed at BMCGMS20 (PAA equimolar to MAA and EAA); relative to DMSO-exposed control; negative = downregulation, positive = upregulation
si:rp71-39b20.7 [4] = test: Microarray gene expression in zebrafish embryos exposed to compound, si:rp71-39b20.7; conditions: 24 hpf; embryos exposed at BMCGMS20 (PAA equimolar to MAA and EAA); relative to DMSO-exposed control; negative = downregulation, positive = upregulation
zebrafish embryos [5] = test: Method of the invention: developmental toxicity from expression of the 4 genes in exposed zebrafish embryos; conditions: for fold ratio (FR) (either up- or downregulated): all 4 genes (cyp26a1, si:rp71-39b20.7, vmhc, hspb12), 24 hpf microarray, compound versus DMSO control
cyp26a1 [6] = conditions: zebrafish (Danio rerio), in vivo, 24 hpf
si:rp71-39b20.7 [7] = conditions: zebrafish (Danio rerio), in vivo, 24 hpf
vmhc [8] = conditions: zebrafish (Danio rerio), in vivo, 24 hpf
hspb12 [9] = conditions: zebrafish (Danio rerio), in vivo, 24 hpf
zebrafish embryos [10] = conditions: zebrafish (Danio rerio), in vivo, 24 hpf
zebrafish embryos [11] = conditions: concentration range, three independent runs, evaluated at 72 hpf; previous study [11]; cited from earlier work

SMILES	Fold ratio (FR) vmhc (vmhc [1])	Fold ratio (FR) hspb12 (hspb12 [2])	Fold ratio (FR) cyp26a1 (cyp26a1 [3])	Fold ratio (FR) si:rp71-39b20.7 (si:rp71-39b20.7 [4])	fold ratio (FR) (either up- or downregulated) (zebrafish embryos [5])	Fold ratio (FR) cyp26a1 (cyp26a1 [6])	Fold ratio (FR) si:rp71-39b20.7 (si:rp71-39b20.7 [7])	Fold ratio (FR) vmhc (vmhc [8])	Fold ratio (FR) hspb12 (hspb12 [9])	fold ratio (FR) (either up- or downregulated) (zebrafish embryos [10])	effects in the ZET (GMS) (zebrafish embryos [11])	developmental toxicity classification in the method according to the invention (zebrafish embryos [5]; gene expression in zebrafish embryos, 24 hours after fertilization)
CC(C1CC1)C(O)(Cn1cncn1)c1ccc(Cl)cc1 (stereo not drawn) [CYP, cyproconazole]	-1.759	-1.531	3.745	-1.544	> 1.5	–	–	–	–	–	–	–
CCOCC(=O)O [EAA, ethoxyacetic acid]	-4.629	-16.913	2.648	-2.183	> 1.5	–	–	–	–	–	–	–
C[Si](Cn1cncn1)(c1ccc(F)cc1)c1ccc(F)cc1 [FLU, flusilazole]	-1.784	-2.182	3.452	-1.514	> 1.5	–	–	–	–	–	–	–
COCC(=O)O [MAA, methoxyacetic acid]	–	–	–	–	–	1.722	-1.996	-2.946	-3.449	> 1.5	–	–
O=C(O)COc1ccccc1 [PAA, phenoxyacetic acid]	-1.102	-1.135	-1.009	-1.098	< 1.2	–	–	–	–	–	no effects	non-developmentally toxic
